Source: patent US20220265775A1, “COMPOSITIONS AND METHODS FOR TREATING PULMONARY EDEMA OR LUNG INFLAMMATION” (priority 2019, published 2022)

Tests used:
Nrf2 = experiment: Western blot of total cellular and nuclear Nrf2 protein in RLE-6TN cells under hyperoxia; assay type: cell-based, rat; settings: 24 hours of hyperoxia, 10^−6 M T3
Method: FIG. 9. […] The cells were then collected for Western Blot analysis. (A) Cellular total Nrf2 protein; (B) Nuclear Nrf2.
Nuclei were extracted with NE-PER nuclear and cytoplasmic extraction reagents kit (Thermo Fisher Scientific, Inc., Waltham, Mass.) following the manufacturer's instruction.
(§1) The cells were lysed in lysis buffer containing 20 mM Tris HCl (pH 7.5), 150 mM NaCl, 1 mM EDTA, 1 mM EGTA, 1% (vol/vol) Triton X-100 with protease inhibitors (1 mM PMSF, 2 μg/ml pepstatin, and 10 μg/ml each of aprotinin and leupeptin), and phosphatase inhibitors (2.5 mM sodium pyrophosphate, 1 mM β-glycerophosphate, and 1 mM Na3VO4). The lysate was drawn 10 times through a 25-gauge needle on ice for further lysis and then was centrifuged at 13,000 rpm for 15 minutes at 4° C. The supernatant was collected, and the protein concentrations were determined by use of the BCA protein assay kit (Sigma-Aldrich, St. Louis, Mo.). Immediately after this step, equal amounts of protein were subjected to Western blotting analysis.

Akt = experiment: Western blot of Akt phosphorylation in RLE-6TN cells under hyperoxia; assay type: cell-based, rat; settings: hyperoxia for 24 hours, T3 added for 20 minutes, vs room air control and hyperoxia alone
Method: FIG. 12. T3-induced increase activation of Akt by phosphorylation. (A) T3 augmented phosphorylation of Akt (p-Akt). […] (C) The PI3K inhibitor wortmannin blocked the T3-induced increase in total cellular amount of HO-1 protein.
as §1

[1] = tested on: hyperoxia-induced lung injury; experiment: Wet-dry lung weight ratio in hyperoxia-exposed rats; assay type: in vivo, Sprague Dawley rats; settings: 60 hours of hyperoxia (O2 with T3), intraperitoneal T3 12.5 μg/kg body weight each 12 hours, O2 alone 6.61±0.604, p=0.0495
Description: (§2) All experimental protocols for animal treatments were approved by the University of Minnesota Institutional Animal Care and Use Committee. […] The room-air control rats were kept in the University animal housing facility. At the end of hyperoxic exposure, rats were sacrificed by intraperitoneal pentobarbital injection, and the lungs were harvested; the right lobes were allocated for histopathology, measurement of lung tissue myeloperoxidase (MPO) activity and wet-to-dry weight ratio. The left lobes underwent bronchoalveolar lavage (BAL) to determine BAL protein concentrations and differential cell counts.
A portion of the right lung was rinsed briefly in PBS, blotted, and then weighed to obtain the “wet” weight. Lungs then were dried in an oven at 80° C. for seven days to obtain the “dry” weight.

[2] = tested on: hyperoxia-induced lung injury; experiment: Lung lavage (BAL) analyses in hyperoxia-exposed rats: protein concentration and cell counts; assay type: in vivo, Sprague Dawley rats
Description: as §2
Bronchoalveolar lavage (BAL) of the left lung was performed using a modification of a method previously described (Pace et al., Exp Lung Res 35:380-398, 2009). Briefly, 4 mls of ice-chilled 1×PBS (pH 7.4) were instilled into the left lung, withdrawn, and re-instilled two subsequent times prior to analysis of the lavage fluid. The retrieved BAL fluid was centrifuged at 1500 rpm for 10 minutes to remove cells and debris. The cell pellet was resuspended in 1 ml of 1×PBS (pH 7.4) and total cell number was counted using a hemocytometer. BAL cytospin preparations were stained using the Hema3 stain kit (Thermo Fisher Scientific, Inc., Waltham, Mass.) to identify the nucleated cells. The protein concentration was determined on the supernatants of BAL fluid using a standard BCA assay (Sigma-Aldrich, St. Louis, Mo.).

[3] = tested on: myeloperoxidase (MPO) activity in lung tissue; experiment: Myeloperoxidase (MPO) activity assay and MPO immunostaining of lung tissue of hyperoxia-exposed rats; assay type: in vivo, Sprague Dawley rats
Description: as §2
To quantify the neutrophil activity in the lung, MPO activity was assayed as previously described (Abraham et al., J Immunol 165:2950-2954, 2000). Lung tissues without prior lavage were frozen in liquid nitrogen, weighed, and stored at −86° C. The lungs were homogenized for 30 seconds in 1.5 ml 20 mM potassium phosphate, pH 7.4, and centrifuged at 4° C. for 30 minutes at 40,000×g. The pellet was resuspended in 1.5 ml 50 mM potassium phosphate, pH 6.0, containing 0.5% hexadecyltrimethylammonium bromide, sonicated for 90 seconds, incubated at 60° C. for two hours, and centrifuged at 14,000 rpm for 30 minutes at 4° C. The supernatant was assayed for peroxidase activity corrected to lung weight. MPO was expressed as activity per gram of lung tissue. […]

[4] = tested on: hyperoxia-induced lung injury; experiment: Histopathological evaluation of lung sections of hyperoxia-exposed rats; assay type: in vivo, Sprague Dawley rats; settings: 60 hours of hyperoxia, systemic T3 supplementation
Description: FIG. 18. […] (A) Control: room air; (B) Hyperoxia; (C) Hyperoxia+T3.
as §2
Lung tissue was removed and inflation fixed at 20 cm water pressure in 4% paraformaldehyde, paraffin embedded, cut as 5 micron sections and mounted onto poly-L-lysine slides. Sections were deparaffinized in xylene, rehydrated through a graded alcohol series in methanol, and placed in a 98° C. water bath for 30 minutes in citrate buffer (pH 6.0) for antigen retrieval. After quenching with 0.3% hydrogen peroxide in PBS, sections were incubated in normal serum for 30 minutes and for 15 minutes each with Avidin/Biotin Blocking Kit (Vector Laboratories, Inc., Burlingame, Calif.). […]

[5] = Serum total T3 measurement (RIA) in hyperoxia-exposed rats; assay type: in vivo, Sprague Dawley rats; settings: rats exposed to 95% oxygen for 60 hours, intraperitoneal T3 supplementation 50 μg/kg bodyweight/24 hours, vs hyperoxia alone
Method: FIG. 13. […] Rats were exposed to ˜ 95% of oxygen for 60 hours. […] RA: room air control.
as §2
Blood samples were collected at the end of 60 hours of hyperoxia and were centrifuged at 13,000 rpm for 30 minutes at 4° C. Supernatant was stored at −20° C.

Compound: N[C@@H](Cc1cc(I)c(Oc2ccc(O)c(I)c2)c(I)c1)C(=O)O [T3, triiodothyronine]
- nuclear Nrf-2 protein expression (Nrf2): significantly increased both total cellular and nuclear Nrf-2 protein expression
- total cellular Nrf-2 protein expression (Nrf2): significantly increased both total cellular and nuclear Nrf-2 protein expression
- phosphorylation of Akt (p-Akt) (Akt): augmented phosphorylation of Akt at Ser473
- wet-to-dry lung weight ratio [1]: 5.82±0.197
- neutrophils among BALF cells ([2]; rats after hyperoxia with T3 treatment (data not shown)): relatively few of the BALF cells after hyperoxia were neutrophils
- BALF cell numbers ([2]; rats, 95% oxygen, 48 hours and 60 hours, T3 administration vs hyperoxia alone): significantly reduced the BALF cell numbers
- BALF protein concentration ([2]; rats, hyperoxia, 48 hour and 60 hour time points, T3 administration vs hyperoxia alone): attenuated significantly the hyperoxic increases
- MPO-positive cells in the lungs (immunostaining) ([3]; T3-injected rats exposed to 95% oxygen for 60 hours vs hyperoxic lungs without T3): fewer MPO-positive cells
- lung MPO activity ([3]; rats, 60 hours of hyperoxia, T3 supplementation vs hyperoxia alone): significantly reduced the hyperoxia-induced MPO activity
- lung morphology (histopathology) [4]: persistence of virtually normal lung morphology
- serum total T3 level [5]: augmented serum total T3
